Data taken from article PMC4433622 (Cancer research, 2015).
Peptide text beside a SMILES is read from it. * marks the point of attachment. Cbz = O=C(OCc1ccccc1)*; CH2F = FC*

Legend:
[1] = tested on: IκBα, IKKα/β in MCF-7 cells; assay: TNFα-induced IκBα degradation and IKKα/β phosphorylation, immunoblotting; assay type: cell-based, human; conditions: for TNFα-induced IκBα degradation / TNFα-induced IKKα/β phosphorylation: TNFα 10 ng/ml, Z-10 7.5 µM, Z-12 5 µM
[2] = tested on: MCF-7 cells; assay: Apoptosis; assay type: cell-based, human; conditions: for apoptosis (PARP cleavage, nuclear fragmentation) together with TNFα / apoptosis (PARP cleavage, nuclear fragmentation), agent alone: MCF-7 cells, 9 h; for apoptosis (PARP cleavage, nuclear fragmentation) together with TNFα: with TNFα 10 ng/ml, Z-10 7.5 µM, Z-12 5 µM; for PARP cleavage induced by the combination of TNFα and Z compounds: effect of added agent on the combination
[3] = tested on: Akt; conditions: by preventing the interaction of tRXRα and p85α; cited from earlier work
[4] = biological target: T1, Gal4-DBD-RXRα-LBD (Homo sapiens, UniProt P19793); assay: Mammalian one hybrid assay, Gal4-DBD-RXRα-LBD with pG5-luc reporter; assay type: cell-based; conditions: HEK293T cells; for Gal4-DBD-RXRα-LBD transcriptional activity (relative luciferase activity): 10 µM, 12 h
T1 sequence (P19793 227-458 limits assumed): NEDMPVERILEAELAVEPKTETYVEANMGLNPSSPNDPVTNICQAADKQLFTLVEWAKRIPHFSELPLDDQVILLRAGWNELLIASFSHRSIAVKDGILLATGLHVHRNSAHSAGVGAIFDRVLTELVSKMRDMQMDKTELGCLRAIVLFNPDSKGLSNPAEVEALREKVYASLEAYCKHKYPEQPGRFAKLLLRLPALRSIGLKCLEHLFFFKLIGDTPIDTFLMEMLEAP

[5] = biological target: Gal4-DBD-RARα-LBD (Homo sapiens, UniProt P10276); assay: Mammalian one hybrid assay, Gal4-DBD-RARα-LBD; assay type: cell-based; conditions: HEK293T cells, 5 µM, 12 h
Gal4-DBD-RARα-LBD, sequence (P10276 183-417 limits assumed): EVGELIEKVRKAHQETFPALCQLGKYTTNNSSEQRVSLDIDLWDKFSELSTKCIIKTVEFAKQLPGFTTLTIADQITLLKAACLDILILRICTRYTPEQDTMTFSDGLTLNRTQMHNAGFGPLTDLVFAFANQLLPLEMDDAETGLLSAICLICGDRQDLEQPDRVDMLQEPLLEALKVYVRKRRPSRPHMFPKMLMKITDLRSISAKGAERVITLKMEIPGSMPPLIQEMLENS

[6] = biological target: RARγ (Homo sapiens, UniProt P13631); assay: Mammalian one hybrid assay, RARγ chimeric reporter; assay type: cell-based; conditions: HEK293T cells, 5 µM, 12 h
RARγ, sequence (P13631 185-419 limits assumed, species assumed): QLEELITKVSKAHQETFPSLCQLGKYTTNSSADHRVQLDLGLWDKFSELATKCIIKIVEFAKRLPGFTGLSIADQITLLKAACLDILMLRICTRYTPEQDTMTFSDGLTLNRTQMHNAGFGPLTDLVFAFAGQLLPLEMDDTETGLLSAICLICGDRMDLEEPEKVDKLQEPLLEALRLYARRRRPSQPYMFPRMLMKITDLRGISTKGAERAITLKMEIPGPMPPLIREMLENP

[7] = biological target: Gal4-DBD-ERα-LBD (Homo sapiens, UniProt P03372); assay: Mammalian one hybrid assay, Gal4-DBD-ERα-LBD; assay type: cell-based; conditions: HEK293T cells, 5 µM, 12 h
Gal4-DBD-ERα-LBD, sequence (P03372 311-547 limits assumed): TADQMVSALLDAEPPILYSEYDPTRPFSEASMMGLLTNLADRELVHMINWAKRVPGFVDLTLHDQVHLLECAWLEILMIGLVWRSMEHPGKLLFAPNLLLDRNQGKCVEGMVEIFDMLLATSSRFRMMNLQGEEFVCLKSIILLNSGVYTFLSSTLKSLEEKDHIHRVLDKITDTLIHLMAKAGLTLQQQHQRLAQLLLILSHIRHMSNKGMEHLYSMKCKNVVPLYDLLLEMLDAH

[8] = biological target: GR (Homo sapiens, UniProt P04150); assay: Mammalian one hybrid assay, GR chimeric reporter; assay type: cell-based; conditions: HEK293T cells, 5 µM, 12 h
GR, sequence (P04150 524-758 limits assumed): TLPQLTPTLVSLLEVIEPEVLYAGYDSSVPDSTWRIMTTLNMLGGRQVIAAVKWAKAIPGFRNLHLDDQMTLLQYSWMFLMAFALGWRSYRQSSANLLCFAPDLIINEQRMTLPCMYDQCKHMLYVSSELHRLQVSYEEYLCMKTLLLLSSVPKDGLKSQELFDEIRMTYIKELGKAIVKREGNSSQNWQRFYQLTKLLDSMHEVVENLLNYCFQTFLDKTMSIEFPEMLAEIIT

[9] = biological target: LXRα (Homo sapiens, UniProt Q13133); assay: Mammalian one hybrid assay, LXRα chimeric reporter; assay type: cell-based; conditions: HEK293T cells, 5 µM, 12 h
LXRα, sequence (Q13133 209-447 limits assumed): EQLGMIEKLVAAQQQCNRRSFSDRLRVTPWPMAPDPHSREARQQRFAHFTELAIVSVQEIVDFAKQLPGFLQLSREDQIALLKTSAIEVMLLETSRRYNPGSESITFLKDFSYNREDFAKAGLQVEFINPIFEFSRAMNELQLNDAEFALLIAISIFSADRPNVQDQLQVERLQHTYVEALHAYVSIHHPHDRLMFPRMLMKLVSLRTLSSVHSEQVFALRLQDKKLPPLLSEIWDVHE

[10] = biological target: PPARγ (Homo sapiens, UniProt P37231); assay: Mammalian one hybrid assay, PPARγ chimeric reporter; assay type: cell-based; conditions: HEK293T cells, 5 µM, 12 h
PPARγ, sequence (P37231 238-503 limits assumed, species assumed): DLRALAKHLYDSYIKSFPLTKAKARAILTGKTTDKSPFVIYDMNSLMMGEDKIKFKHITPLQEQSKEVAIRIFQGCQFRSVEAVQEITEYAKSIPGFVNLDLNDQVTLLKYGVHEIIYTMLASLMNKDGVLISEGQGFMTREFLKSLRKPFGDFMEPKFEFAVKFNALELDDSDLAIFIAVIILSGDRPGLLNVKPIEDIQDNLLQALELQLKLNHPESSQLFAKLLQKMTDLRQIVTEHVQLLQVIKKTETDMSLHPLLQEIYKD

[11] = tested on: NFκB; assay: NFκB reporter gene assay; assay type: cell-based
[12] = tested on: p65 in MCF-7 cells; assay: TNFα-induced p65 nuclear translocation, immunostaining; assay type: cell-based, human; conditions: 10 µM pretreatment 1 h, TNFα 10 ng/ml 30 min
[13] = tested on: RIP1 in MCF-7 cells; assay: tRXRα-promoted TNFα-induced RIP1 ubiquitination; assay type: cell-based, human; conditions: 10 µM 1 h, TNFα 20 ng/ml 5 min
[14] = tested on: MCF-7 xenografts; assay: MCF-7 xenografts in nude mice; assay type: in vivo, Nude mice (BALB/c); conditions: MCF-7 bearing mice, 30 mg/kg oral once a day
[15] = biological target: T2, RXRα-LBD (Homo sapiens, UniProt P19793); assay: Ligand competition assay with [3H]9-cis-RA; assay type: binding
T2 sequence (P19793 223-462): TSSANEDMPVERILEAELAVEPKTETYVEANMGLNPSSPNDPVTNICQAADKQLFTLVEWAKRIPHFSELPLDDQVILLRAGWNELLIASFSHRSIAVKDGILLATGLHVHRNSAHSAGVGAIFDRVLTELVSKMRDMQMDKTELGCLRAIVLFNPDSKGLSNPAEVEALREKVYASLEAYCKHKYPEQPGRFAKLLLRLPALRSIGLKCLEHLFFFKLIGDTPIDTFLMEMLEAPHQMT

[16] = biological target: T2, RXRα-LBD; assay: Differential scanning calorimetry; assay type: binding
[17] = biological target: T2, RXRα-LBD; assay: Non-denaturing PAGE of RXRα-LBD oligomers; conditions: Z compounds 10 µM, 9-cis-RA 0.5 µM, 3 h
[18] = biological target: T2, RXRα-LBD; assay: Surface plasmon resonance; assay type: binding
[19] = biological target: Gal4-DBD-RXRα-LBD/R316E (Homo sapiens, UniProt P19793, R316E); assay: Mammalian one hybrid assay, Gal4-DBD-RXRα-LBD/R316E; assay type: cell-based; conditions: HEK293T cells; 9-cis-RA 0.1 µM, Z-10 and Z-12 5 µM
Gal4-DBD-RXRα-LBD/R316E, sequence (P19793 227-458 R316E limits assumed): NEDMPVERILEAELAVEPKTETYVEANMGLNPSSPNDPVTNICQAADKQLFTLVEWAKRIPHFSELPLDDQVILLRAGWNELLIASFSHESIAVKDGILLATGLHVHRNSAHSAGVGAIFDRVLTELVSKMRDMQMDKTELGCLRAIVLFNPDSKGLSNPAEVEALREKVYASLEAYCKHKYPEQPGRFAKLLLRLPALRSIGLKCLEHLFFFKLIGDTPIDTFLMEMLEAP

[20] = biological target: Gal4-DBD-RXRα-LBD C432S (Homo sapiens, UniProt P19793, C432S); assay: Mammalian one hybrid assay, Gal4-DBD-RXRα-LBD C432S mutant; assay type: cell-based; conditions: HEK293T cells; 9-cis-RA 0.1 µM, Z-10 and Z-12 5 µM
Gal4-DBD-RXRα-LBD C432S, sequence (P19793 227-458 C432S limits assumed): as the sequence (P19793 227-458 R316E limits assumed) above, with E90R, C206S counted along it

[21] = tested on: tRXRα with p85α; assay: TNFα-induced interaction of tRXRα with p85α; assay type: cell-based
[22] = biological target: RXRα homodimer (Homo sapiens, UniProt P19793); assay: RXRE-luciferase reporter assay; conditions: HEK293T cells, 12 h
RXRα homodimer, sequence (P19793 whole entry): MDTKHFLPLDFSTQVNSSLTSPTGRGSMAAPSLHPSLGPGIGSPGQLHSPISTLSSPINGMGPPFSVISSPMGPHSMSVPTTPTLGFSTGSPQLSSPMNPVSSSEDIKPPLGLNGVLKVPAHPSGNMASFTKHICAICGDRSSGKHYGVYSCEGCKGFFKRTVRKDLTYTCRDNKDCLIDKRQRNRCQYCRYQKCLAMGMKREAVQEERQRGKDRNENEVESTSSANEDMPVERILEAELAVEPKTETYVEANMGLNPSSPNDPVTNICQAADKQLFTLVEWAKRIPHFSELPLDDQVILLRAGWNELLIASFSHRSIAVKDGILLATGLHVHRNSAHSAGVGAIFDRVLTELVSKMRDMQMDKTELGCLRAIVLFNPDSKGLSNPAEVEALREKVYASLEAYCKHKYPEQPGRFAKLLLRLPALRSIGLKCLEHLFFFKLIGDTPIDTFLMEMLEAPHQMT

[23] = biological target: tRXRα with TRAF2 (Homo sapiens, UniProt P19793); assay: TNFα-induced TRAF2/tRXRα complex formation, co-immunoprecipitation; conditions: HEK293T cells, 5 µM 1 h, TNFα 40 ng/ml 15 min
tRXRα with TRAF2, sequence (P19793 81-462 limits assumed): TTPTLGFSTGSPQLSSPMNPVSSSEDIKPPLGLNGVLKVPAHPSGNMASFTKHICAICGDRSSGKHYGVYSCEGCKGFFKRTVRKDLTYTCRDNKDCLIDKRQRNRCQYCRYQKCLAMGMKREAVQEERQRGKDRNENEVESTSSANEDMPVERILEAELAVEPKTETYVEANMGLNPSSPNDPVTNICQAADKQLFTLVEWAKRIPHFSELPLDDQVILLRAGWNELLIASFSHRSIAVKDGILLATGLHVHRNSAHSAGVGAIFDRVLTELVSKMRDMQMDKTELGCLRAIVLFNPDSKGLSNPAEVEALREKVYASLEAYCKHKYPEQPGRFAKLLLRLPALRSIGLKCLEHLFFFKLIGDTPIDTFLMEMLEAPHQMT

[24] = biological target: the molecule itself; assay: SEC

CC1=C(/C=C/C(C)=C\C=C\C(C)=C\C(=O)O)C(C)(C)CCC1 [9-cis-RA, 9-cis-retinoic acid]
TNFα-induced IκBα degradation ([1]; MCF-7 cells): did not show apparent effects
apoptosis (PARP cleavage, nuclear fragmentation) together with TNFα [2]: little effect
PARP cleavage induced by the combination of TNFα and Z compounds [2]: able to suppress

CC1=C(CC(=O)O)c2cc(F)ccc2/C1=C\c1ccc(C(C)C)cc1 [K-80003]
inhibition of TNFα-induced Akt activation [3]: could inhibit

CCCCCOc1cc2c(cc1-c1cc(/C=C/C(=O)O)ccc1O)C(C)(C)CCC2(C)C [UVI3003]
TNFα-induced IκBα degradation ([1]; MCF-7 cells): did not show apparent effects
apoptosis (PARP cleavage, nuclear fragmentation) together with TNFα [2]: little effect
PARP cleavage induced by the combination of TNFα and Z compounds [2]: able to suppress

Cc1ccc(/C=C/[N+](=O)[O-])cc1 [Z-1, (E)-1-methyl-4-(2-nitrovinyl)benzene]
Gal4-DBD-RXRα-LBD transcriptional activity (relative luciferase activity) [4]: selectively activated

O=[N+]([O-])/C=C/c1cccc2ccccc12 [Z-10, (E)-1-(2-nitrovinyl)naphthalene]
activation of RARα chimeric reporter [5]: neither of them significantly activated
activation of RARγ chimeric reporter [6]: neither of them significantly activated
activation of ERα chimeric reporter [7]: neither of them significantly activated
activation of GR chimeric reporter [8]: neither of them significantly activated
activation of LXRα chimeric reporter [9]: neither of them significantly activated
activation of PPARγ chimeric reporter [10]: neither of them significantly activated
inhibition of NFκB activation by TNFα (reporter gene assay) [11]: dose-dependently inhibited
TNFα-induced p65 nuclear translocation [12]: significantly inhibited
inhibitory effect on TNFα-induced IκBα degradation, MCF-7 versus H460 cells ([1]; 7.5 µM 1 h, TNFα 30 min, MCF-7 express higher RXRα and tRXRα than H460): stronger in MCF-7 cells
TNFα-induced IKKα/β phosphorylation ([1]; MCF-7 cells): significantly inhibited
TNFα-induced IκBα degradation ([1]; MCF-7 cells): significantly inhibited
RXRα/Δ80-promoted TNFα-induced RIP1 ubiquitination [13]: largely blocked
apoptosis (PARP cleavage, nuclear fragmentation), agent alone [2]: did not happen
apoptosis (PARP cleavage, nuclear fragmentation) together with TNFα [2]: significant apoptosis
tumor growth and apoptosis of cancer cells, compound alone [14]: Tumor growth inhibition and extensive apoptosis of cancer cells

O=[N+]([O-])/C=C/c1ccc2ccccc2c1 [Z-11, (E)-2-(2-nitrovinyl)naphthalene]
Gal4-DBD-RXRα-LBD transcriptional activity (relative luciferase activity) [4]: unable to activate RXRα
IC50 [15]: 330 nM
Tm values of RXRα-LBD protein (DSC) [16]: shifted higher
RXRα-LBD tetramer/dimer formation on native gel [17]: induced higher levels of RXRα-LBD oligomerization

O=[N+]([O-])/C=C/c1c2ccccc2cc2ccccc12 [Z-12, (E)-9-(2-nitrovinyl)anthracene]
RXRα transactivation, dose dependence [4]: dose-dependently activated
RXRα transactivation relative to activity of 0.1 µM 9-cis-RA ([4]; compound at 10 µM, % of activity of 0.1 µM 9-cis-RA): about 50%
activation of RARα chimeric reporter [5]: neither of them significantly activated
activation of RARγ chimeric reporter [6]: neither of them significantly activated
activation of ERα chimeric reporter [7]: neither of them significantly activated
activation of GR chimeric reporter [8]: neither of them significantly activated
activation of LXRα chimeric reporter [9]: neither of them significantly activated
activation of PPARγ chimeric reporter [10]: neither of them significantly activated
IC50 [15]: 810 nM
Kd [18]: 1950 nM
Tm values of RXRα-LBD protein (DSC) [16]: shifted higher
transactivation of Gal4-DBD-RXRα-LBD/R316E [19]: strongly activated
activation of Gal4-DBD-RXRα-LBD with Cys432 mutated to Ser [20]: completely incapacitated
inhibition of TNFα-induced interaction of tRXRα with p85α [21]: could not inhibit
TNFα-induced p65 nuclear translocation [12]: significantly inhibited
TNFα-induced IKKα/β phosphorylation ([1]; MCF-7 cells): significantly inhibited
TNFα-induced IκBα degradation ([1]; MCF-7 cells): significantly inhibited
effect on inhibiting TNFα-induced IκBα degradation when TRAF2 expression was suppressed by siRNA ([1]; MCF-7 cells, TRAF2 siRNA 36 h, TNFα 10 ng/ml 30 min): dramatically reduced
apoptosis (PARP cleavage, nuclear fragmentation), agent alone [2]: did not happen
apoptosis (PARP cleavage, nuclear fragmentation) together with TNFα [2]: significant apoptosis
tumor growth and apoptosis of cancer cells, compound alone [14]: Tumor growth inhibition and extensive apoptosis of cancer cells
RXRα-LBD tetramer/dimer formation on native gel [17]: induced homodimer formation
effect on 9-cis-RA-induced RXRα homodimer transactivation ([22]; 5 µM with 9-cis-RA 0.1 µM): inhibited 9-cis-RA-induced transactivation
transactivation of RXRα homodimer (RXRE-luciferase) ([22]; 5 µM): failed to induce the transactivation
TNFα-induced interaction of tRXRα with TRAF2 [23]: strongly inhibited

COC(=O)C[C@H](NC(=O)[C@H](C)NC(=O)[C@@H](NC(=O)OCc1ccccc1)C(C)C)C(=O)CF [Z-VAD-FMK] (Cbz-Val-Ala-Asp(OMe)-CH2F)
PARP cleavage induced by the combination of TNFα and Z compounds [2]: completely blocked

CD3254
TNFα-induced IκBα degradation ([1]; MCF-7 cells): did not show apparent effects
apoptosis (PARP cleavage, nuclear fragmentation) together with TNFα [2]: little effect
PARP cleavage induced by the combination of TNFα and Z compounds [2]: able to suppress

TNFα
apoptosis (PARP cleavage, nuclear fragmentation), agent alone [2]: did not happen

B1: RXRα-LBD/C432W (domain or fragment, human, UniProt P19793 223-462, looked up)
chain: TSSANEDMPVERILEAELAVEPKTETYVEANMGLNPSSPNDPVTNICQAADKQLFTLVEWAKRIPHFSELPLDDQVILLRAGWNELLIASFSHRSIAVKDGILLATGLHVHRNSAHSAGVGAIFDRVLTELVSKMRDMQMDKTELGCLRAIVLFNPDSKGLSNPAEVEALREKVYASLEAYCKHKYPEQPGRFAKLLLRLPALRSIGLKWLEHLFFFKLIGDTPIDTFLMEMLEAPHQMT
stoichiometry N [24]: 2
